Data from ChEMBL document CHEMBL2396612 (Bioorg Med Chem Lett, 2013).

Columns and labels:
[1] = molecular target: T1, Sterol O-acyltransferase 2 (Homo sapiens, UniProt O75908); assay: Inhibition of ACAT2 (unknown origin)
T1 sequence (O75908 whole entry): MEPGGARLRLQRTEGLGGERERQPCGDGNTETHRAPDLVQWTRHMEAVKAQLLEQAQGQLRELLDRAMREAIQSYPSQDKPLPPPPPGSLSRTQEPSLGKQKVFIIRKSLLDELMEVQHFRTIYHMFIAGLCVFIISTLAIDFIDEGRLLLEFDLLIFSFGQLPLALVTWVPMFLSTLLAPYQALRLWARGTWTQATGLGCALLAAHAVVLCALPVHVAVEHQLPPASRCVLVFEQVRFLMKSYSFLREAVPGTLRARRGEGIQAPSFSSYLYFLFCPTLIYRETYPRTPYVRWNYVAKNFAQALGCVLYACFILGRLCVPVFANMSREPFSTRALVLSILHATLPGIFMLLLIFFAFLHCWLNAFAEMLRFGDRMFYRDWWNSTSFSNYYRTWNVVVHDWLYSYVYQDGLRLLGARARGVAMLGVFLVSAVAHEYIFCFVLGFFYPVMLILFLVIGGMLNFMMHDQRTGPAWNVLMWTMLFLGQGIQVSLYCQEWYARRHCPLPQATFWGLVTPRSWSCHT

[2] = species on record: Homo sapiens; assay: Selectivity index, ratio of IC50 for ACAT1 (unknown origin) to IC50 for ACAT2 (unknown origin)
[3] = molecular target: T2, Sterol O-acyltransferase 1 (Homo sapiens, UniProt P35610); assay: Inhibition of ACAT1 (unknown origin)
T2 sequence (P35610 whole entry): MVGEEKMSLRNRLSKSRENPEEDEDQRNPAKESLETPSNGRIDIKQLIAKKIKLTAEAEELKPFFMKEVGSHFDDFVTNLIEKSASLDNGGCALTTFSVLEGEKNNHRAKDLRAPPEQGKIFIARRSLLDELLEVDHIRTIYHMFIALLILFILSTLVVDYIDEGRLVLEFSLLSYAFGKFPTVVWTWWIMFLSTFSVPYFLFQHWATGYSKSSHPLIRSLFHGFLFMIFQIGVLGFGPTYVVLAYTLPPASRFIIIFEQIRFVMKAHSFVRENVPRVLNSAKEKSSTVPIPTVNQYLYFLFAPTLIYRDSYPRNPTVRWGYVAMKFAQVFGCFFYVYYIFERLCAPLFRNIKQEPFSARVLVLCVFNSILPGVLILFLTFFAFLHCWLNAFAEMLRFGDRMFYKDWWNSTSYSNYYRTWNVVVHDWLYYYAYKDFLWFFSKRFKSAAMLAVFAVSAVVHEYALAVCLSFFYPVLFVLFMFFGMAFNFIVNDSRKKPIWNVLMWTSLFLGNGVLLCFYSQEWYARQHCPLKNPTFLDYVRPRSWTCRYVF

Structure (SMILES)	IC50 [1] [nM]	Ratio IC50 [2]	IC50 [3] [nM]
CCCCC(=O)O[C@H]1C[C@H]2[C@]3(C)CO[C@@H](c4ccccc4C)O[C@H]3CC[C@]2(C)[C@H]2[C@@H](O)c3c(cc(-c4cccnc4)oc3=O)O[C@]12C	10	320	3200
Cc1cccc([C@@H]2OC[C@@]3(C)[C@@H]4C[C@H](OC(=O)c5ccc(C#N)cc5)[C@@]5(C)Oc6cc(-c7cccnc7)oc(=O)c6[C@H](O)[C@@H]5[C@@]4(C)CC[C@@H]3O2)c1	7.8	478	3730
CCCCC(=O)O[C@H]1C[C@H]2[C@]3(C)CO[C@@H](c4ccccc4)O[C@H]3CC[C@]2(C)[C@H]2[C@@H](O)c3c(cc(-c4cccnc4)oc3=O)O[C@]12C	20	200	4000
COc1ccccc1[C@@H]1OC[C@@]2(C)[C@@H]3C[C@H](OC(=O)c4ccc(C#N)cc4)[C@@]4(C)Oc5cc(-c6cccnc6)oc(=O)c5[C@H](O)[C@@H]4[C@@]3(C)CC[C@@H]2O1	36.8	> 1930	> 71000
Cc1ccc([C@@H]2OC[C@@]3(C)[C@@H]4C[C@H](OC(=O)c5ccc(C#N)cc5)[C@@]5(C)Oc6cc(-c7cccnc7)oc(=O)c6[C@H](O)[C@@H]5[C@@]4(C)CC[C@@H]3O2)c(C)c1	6.6	1520	10000
Cc1ccccc1[C@@H]1OC[C@@]2(C)[C@@H]3C[C@H](OC(=O)c4ccc(C#N)cc4)[C@@]4(C)Oc5cc(-c6cccnc6)oc(=O)c5[C@H](O)[C@@H]4[C@@]3(C)CC[C@@H]2O1	11.8	> 6160	> 72800
Cc1cccc([C@@H]2OC[C@@]3(C)[C@@H]4C[C@H](OC(=O)c5ccc(F)cc5)[C@@]5(C)Oc6cc(-c7cccnc7)oc(=O)c6[C@H](O)[C@@H]5[C@@]4(C)CC[C@@H]3O2)c1	47.6	200	9510
Cc1ccc([C@@H]2OC[C@@]3(C)[C@@H]4C[C@H](OC(=O)c5ccc(F)cc5)[C@@]5(C)Oc6cc(-c7cccnc7)oc(=O)c6[C@H](O)[C@@H]5[C@@]4(C)CC[C@@H]3O2)cc1	15.1	367	5540
C[C@@]12CO[C@@H](c3ccccc3F)O[C@H]1CC[C@@]1(C)[C@H]2C[C@H](OC(=O)c2ccc(C#N)cc2)[C@@]2(C)Oc3cc(-c4cccnc4)oc(=O)c3[C@H](O)[C@H]12	6.8		
Cc1cccc(C)c1[C@@H]1OC[C@@]2(C)[C@@H]3C[C@H](OC(=O)c4ccc(C#N)cc4)[C@@]4(C)Oc5cc(-c6cccnc6)oc(=O)c5[C@H](O)[C@@H]4[C@@]3(C)CC[C@@H]2O1	7.2	> 9920	> 71200
C[C@@]12CO[C@@H](c3cccc4ccccc34)O[C@H]1CC[C@@]1(C)[C@H]2C[C@H](OC(=O)c2ccc(C#N)cc2)[C@@]2(C)Oc3cc(-c4cccnc4)oc(=O)c3[C@H](O)[C@H]12	23.2	> 2980	> 69100
C[C@@]12CO[C@@H](c3ccccc3)O[C@H]1CC[C@@]1(C)[C@H]2C[C@H](OC(=O)c2ccccc2Cl)[C@@]2(C)Oc3cc(-c4cccnc4)oc(=O)c3[C@H](O)[C@H]12	110	16.2	1780
C[C@@]12CO[C@@H](c3ccccc3)O[C@H]1CC[C@@]1(C)[C@H]2C[C@H](OC(=O)c2cccc(C#N)c2)[C@@]2(C)Oc3cc(-c4cccnc4)oc(=O)c3[C@H](O)[C@H]12	30	73.3	2200
C[C@@]12CO[C@@H](c3ccccc3)O[C@H]1CC[C@@]1(C)[C@H]2C[C@H](OC(=O)c2ccccc2C#N)[C@@]2(C)Oc3cc(-c4cccnc4)oc(=O)c3[C@H](O)[C@H]12	320		
C[C@@]12CO[C@@H](c3ccccc3)O[C@H]1CC[C@@]1(C)[C@H]2C[C@H](OC(=O)c2ccccc2F)[C@@]2(C)Oc3cc(-c4cccnc4)oc(=O)c3[C@H](O)[C@H]12	50	54	2700
CC(=O)OC[C@@]1(C)[C@@H]2C[C@H](OC(=O)c3ccc(C#N)cc3)[C@@]3(C)Oc4cc(-c5cccnc5)oc(=O)c4[C@H](O)[C@@H]3[C@@]2(C)CC[C@@H]1OC(C)=O		4620	
Cc1ccccc1[C@@H]1OC[C@@]2(C)[C@@H]3C[C@H](OC(=O)c4ccc(F)cc4)[C@@]4(C)Oc5cc(-c6cccnc6)oc(=O)c5[C@H](O)[C@@H]4[C@@]3(C)CC[C@@H]2O1	23		
Cc1ccc([C@@H]2OC[C@@]3(C)[C@@H]4C[C@H](OC(=O)c5ccc(C#N)cc5)[C@@]5(C)Oc6cc(-c7cccnc7)oc(=O)c6[C@H](O)[C@@H]5[C@@]4(C)CC[C@@H]3O2)cc1	9.7	836	8110

The next lines start with the values.

IC50 [1] [nM]	Ratio IC50 [2]	IC50 [3] [nM]	Structure (SMILES)
70	61.4	4300	COc1cccc(C(=O)O[C@H]2C[C@H]3[C@]4(C)CO[C@@H](c5ccccc5)O[C@H]4CC[C@]3(C)[C@H]3[C@@H](O)c4c(cc(-c5cccnc5)oc4=O)O[C@]23C)c1
10	690	6900	C[C@@]12CO[C@@H](c3ccccc3)O[C@H]1CC[C@@]1(C)[C@H]2C[C@H](OC(=O)c2ccc(Br)cc2)[C@@]2(C)Oc3cc(-c4cccnc4)oc(=O)c3[C@H](O)[C@H]12
13	231	3000	C[C@@]12CO[C@@H](c3ccccc3)O[C@H]1CC[C@@]1(C)[C@H]2C[C@H](OC(=O)c2cccc(F)c2)[C@@]2(C)Oc3cc(-c4cccnc4)oc(=O)c3[C@H](O)[C@H]12
19	142	2700	C[C@@]12CO[C@@H](c3ccccc3)O[C@H]1CC[C@@]1(C)[C@H]2C[C@H](OC(=O)c2cccc(Cl)c2)[C@@]2(C)Oc3cc(-c4cccnc4)oc(=O)c3[C@H](O)[C@H]12
7	886	6200	C[C@@]12CO[C@@H](c3ccccc3)O[C@H]1CC[C@@]1(C)[C@H]2C[C@H](OC(=O)c2ccc(F)cc2)[C@@]2(C)Oc3cc(-c4cccnc4)oc(=O)c3[C@H](O)[C@H]12
320	10.5	3400	COc1ccccc1C(=O)O[C@H]1C[C@H]2[C@]3(C)CO[C@@H](c4ccccc4)O[C@H]3CC[C@]2(C)[C@H]2[C@@H](O)c3c(cc(-c4cccnc4)oc3=O)O[C@]12C
6	467	2800	C[C@@]12CO[C@@H](c3ccccc3)O[C@H]1CC[C@@]1(C)[C@H]2C[C@H](OC(=O)c2ccc(C#N)cc2)[C@@]2(C)Oc3cc(-c4cccnc4)oc(=O)c3[C@H](O)[C@H]12
30	143	4300	C[C@@]12CO[C@@H](c3ccccc3)O[C@H]1CC[C@@]1(C)[C@H]2C[C@H](OC(=O)c2cccc(Br)c2)[C@@]2(C)Oc3cc(-c4cccnc4)oc(=O)c3[C@H](O)[C@H]12
30	183	5500	C[C@@]12CO[C@@H](c3ccccc3)O[C@H]1CC[C@@]1(C)[C@H]2C[C@H](OC(=O)c2ccc(C=O)cc2)[C@@]2(C)Oc3cc(-c4cccnc4)oc(=O)c3[C@H](O)[C@H]12
14	493	6900	COc1ccc(C(=O)O[C@H]2C[C@H]3[C@]4(C)CO[C@@H](c5ccccc5)O[C@H]4CC[C@]3(C)[C@H]3[C@@H](O)c4c(cc(-c5cccnc5)oc4=O)O[C@]23C)cc1
60	232	13900	C[C@@]12CO[C@@H](c3ccccc3)O[C@H]1CC[C@@]1(C)[C@H]2C[C@H](OC(=O)c2ccc([N+](=O)[O-])cc2)[C@@]2(C)Oc3cc(-c4cccnc4)oc(=O)c3[C@H](O)[C@H]12
9	644	5800	C[C@@]12CO[C@@H](c3ccccc3)O[C@H]1CC[C@@]1(C)[C@H]2C[C@H](OC(=O)c2ccc(Cl)cc2)[C@@]2(C)Oc3cc(-c4cccnc4)oc(=O)c3[C@H](O)[C@H]12
